From US20030073744A1, “Agent for enhancing cerebral acetylcholine release” (priority 1999, published 2003)

Experiments:
[1] = Acute toxicity after oral administration to rats (LD50); assay type: in vivo, rat; details: rat, in vivo
rats [2] = details: repeated oral administration over 4 weeks, up to 600 mg/kg
ACh release = assay: Test of the enhancing effect of ACh release (brain microdialysis in freely moving SHRSP); assay type: in vivo, rat; details: for enhancement of ACh release (percent change over baseline): perfused for 20 minutes through microdialysis probe (10^-7 to 10^-5 M)
Source text: Test animals: Male stroke-prone spontaneously hypertensive rats (SHRSP) at 13 weeks of age, which received 1% NaCl solution instead of water for 5 weeks prior to the experiment. Test method: SHRSP were anesthetized and a guide cannula was implanted into the thalamus, dorsal hippocampus and prefrontal cortex. After recovery, a concentric microdialysis probe was inserted into the guide cannula and perfused with normal Ringer solution containing 10^−5 M eserine (SIGMA, St. Louis, USA) at a constant flow rate of 2 μl/min under freely moving condition. […] The dialysates for every 20 minutes were collected and injected into the high-pressure liquid chromatography system to quantify extracellular ACh levels. ACh release was expressed as percent change over the average of three consecutive stable samples collected before drug perfusion.

aged Wistar rats = assay: Test of the ameliorating effect of impaired circadian rhythm (food-motivated anticipatory activity); assay type: in vivo, rat; details: 30 and 100 mg/kg orally once daily for 7 consecutive days, FIG. 5
Protocol: Test animals: Male Wistar rats at 9 weeks of age (young group) and around 30 months of age (aged group).
Test method: Animals were individually housed and had free access to food and water. After fasting for 24 hours (Day 0), feeding was restricted to only 1 hour/day from 13:30 for 6 consecutive days. Food was again withheld on Day 7, and food-motivated circadian anticipatory activity was investigated. 1-p-Anisoyl-2-pyrrolidinone at 30 and 100 mg/kg or vehicle was orally administered immediately after the feeding time, once daily for 7 consecutive days. Spontaneous motor activity was measured in each home cage.

SHRSP = assay: Test of improving effect of disturbed sleep pattern (EEG/EMG, REMS); assay type: in vivo, rat; details: 15 mg/kg orally twice daily over 5 consecutive days, FIG. 7
Source text: Test animals: Male SHRSP at 13 weeks of age, which received 1% NaCl solution instead of water over 5 weeks, and Wistar Kyoto rats (WKY) at the same age.
Test method: Animals were anesthetized, and electrodes for electroencephalogram (EEG) and a sensor for brain temperature were implanted into the cerebral cortex and electrodes for electromyogram (EMG) were implanted into the back cervical muscle. All variables were continuously recorded for 7 days, and the behavioral states of rats were classified into wakefulness, REMS, NREMS by analyzing the amplitude and frequency of EEG and EMG waves. 1-p-Anisoyl-2-pyrrolidinone at 15 mg/kg or vehicle was administered orally twice daily (morning and evening) over 5 consecutive days.

rats [3] = assay: Acute toxicity after oral administration to rats (LD50); assay type: in vivo, rat; details: both sexes
[4] = dorsal hippocampus of SHRSP, FIG. 2
[5] = prefrontal cortex of SHRSP, FIG. 3

COc1ccc(C(=O)O)cc1 [p-anisic acid]
LD50 ([1]; female animals): 2120 mg/kg
LD50 ([1]; male animals): 1810 mg/kg
sub-acute toxicity, such as lethality and abnormality in hematological, hematobiochemical and toxipathological tests (rats [2]): not observed
enhancement of ACh release (percent change over baseline) (ACh release; [4]): 51%
enhancement of ACh release (percent change over baseline) (ACh release; [5]): 61%
enhancement of ACh release (percent change over baseline) (ACh release; thalamus of SHRSP, FIG. 1): 22%

COc1ccc(C(=O)N2CCCC2=O)cc1 [1-p-anisoyl-2-pyrrolidinone, 1-p-Anisoyl-2-pyrrolidinone]
impaired food-motivated anticipatory activity (aged Wistar rats): significantly ameliorated
effect on ACh release (ACh release; any cerebral regions (thalamus, dorsal hippocampus, prefrontal cortex) of SHRSP): not observed
reduced diurnal REMS (SHRSP): ameliorated

COc1ccc(C(=O)NCCCC(=O)O)cc1 [N-anisoyl-GABA, N-anisoyl-γ-aminobutyric acid]
acute toxicity (LD50 values) (rats [3]): more than 5,000 mg/kg
sub-acute toxicity, such as lethality and abnormality in hematological, hematobiochemical and toxipathological tests (rats [2]): not observed
enhancement of ACh release (percent change over baseline) (ACh release; [4]): 48%
enhancement of ACh release (percent change over baseline) (ACh release; [5]): 70%
enhancement of ACh release (percent change over baseline) (ACh release; thalamus of SHRSP, FIG. 1): 32%
